Results: patent US10294202B2, “Pyrrolidinones as herbicides” (FMC Corporation, priority 2013, dated 2019)

Columns and labels:
barnyardgrass = experiment: Test A pre-/postemergence herbicide test; type: in vivo, Echinochloa crus-galli; details: for Plant response rating, Barnyardgrass: 0 to 100 scale
Summary of the method: (§1)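 Directed soil spray to seeded pots (preemergence) or spray onto one- to two-leaf seedlings 2–10 cm tall (postemergence); loam/sand substrate throughout. Evaluated visually after about 10 days against untreated plants, 0 = no effect, 100 = complete control.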

pigweed = experiment: Test A pre-/postemergence herbicide test; type: in vivo, Amaranthus retroflexus; details: for Plant response rating, Pigweed: 0 to 100 scale
Summary of the method: as §1

wheat = experiment: Test A pre-/postemergence herbicide test; type: in vivo, Triticum aestivum; details: Postemergence
Summary of the method: as §1

corn [1] = experiment: Test A pre-/postemergence herbicide test; type: in vivo, Zea mays; details: Postemergence
Summary of the method: as §1

ryegrass, Italian = experiment: Test C pre-/postemergence herbicide test; type: in vivo, Lolium multiflorum
Summary of the method: (§2)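 Two application timings ran in parallel with identically formulated test chemicals (non-phytotoxic solvent, surfactant included): spray on seeded loam–sand soil, and spray on emerged plants 2 to 18 cm high. Evaluation at 13 to 15 days compared each species with controls, rated from 0 up to 100.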

wheat (winter wheat) = experiment: Test C pre-/postemergence herbicide test; type: in vivo, Triticum aestivum
Summary of the method: as §2

galium = experiment: Test C pre-/postemergence herbicide test; type: in vivo, Galium aparine
Summary of the method: as §2

corn [2] = experiment: Test C pre-/postemergence herbicide test; type: in vivo, Zea mays
Summary of the method: as §2

crabgrass, large = experiment: Test C pre-/postemergence herbicide test; type: in vivo, Digitaria sanguinalis
Summary of the method: as §2

foxtail, giant = experiment: Test C pre-/postemergence herbicide test; type: in vivo, Setaria faberii
Summary of the method: as §2

johnsongrass = experiment: Test C pre-/postemergence herbicide test; type: in vivo, Sorghum halepense
Summary of the method: as §2

morningglory = experiment: Test C pre-/postemergence herbicide test; type: in vivo, Ipomoea coccinea
Summary of the method: as §2

soybean = experiment: Test C pre-/postemergence herbicide test; type: in vivo, Glycine max
Summary of the method: as §2

[3] = 125 g ai/ha, visual rating, 0 no effect, 100 complete control, approximately 10 days, preemergence
[4] = Postemergence, 125 g ai/ha, 0 is no effect, 100 is complete control
[5] = preemergence, 500 g ai/ha, 0 is no effect and 100 is complete control
[6] = 125 g ai/ha, 0 to 100 scale, 0 is no effect, 100 is complete control
[7] = Postemergence, 31 g ai/ha, scale 0 to 100 (0 no effect, 100 complete control)
[8] = Postemergence, 62 g ai/ha, scale 0 (no effect) to 100 (complete control)
[9] = Postemergence, 125 g ai/ha, scale 0 to 100 (0 no effect, 100 complete control)
[10] = Postemergence, 250 g ai/ha, scale 0 to 100 (0 no effect, 100 complete control)
[11] = Preemergence, 31 g ai/ha, scale 0 to 100, 0 is no effect and 100 is complete control
[12] = Preemergence, 62 g ai/ha, scale 0 to 100 (0 no effect, 100 complete control)
[13] = Preemergence, 125 g ai/ha, scale 0 to 100 (0 no effect, 100 complete control)

O=C1NCC(c2ccc(C(F)(F)F)cc2)C1C(=O)Nc1ccc(F)c(F)c1F (stereo not drawn) [Compound 232]
Plant response rating, Barnyardgrass (barnyardgrass; [3]): 90
Plant response rating, Barnyardgrass (barnyardgrass; [4]): 80
Barnyardgrass plant response rating (0 to 100 scale, 0 is no effect, 100 is complete control) (barnyardgrass; Postemergence, 500 g ai/ha): 90
Plant response rating, Barnyardgrass (barnyardgrass; [5]): 90
Plant response rating, Pigweed (pigweed; [3]): 50
Plant response rating, Pigweed (pigweed; [4]): 80
Pigweed plant response rating (0 to 100 scale, 0 is no effect, 100 is complete control) (pigweed; Postemergence, 500 g ai/ha): 90
Plant response rating, Pigweed (pigweed; [5]): 60
Plant response rating, Wheat (wheat; [6]): 30
Wheat plant response rating (0 to 100 scale, 0 is no effect, 100 is complete control) (wheat; 500 g ai/ha): 50
Plant response rating, Corn (corn [1]; [6]): 80
Corn plant response rating (0 to 100 scale, 0 is no effect, 100 is complete control) (corn [1]; 500 g ai/ha): 80
Plant response rating, Ryegrass, Italian (ryegrass, Italian; [7]): 0
Plant response rating, Ryegrass, Italian (ryegrass, Italian; [8]): 0
Plant response rating, Ryegrass, Italian (ryegrass, Italian; [9]): 0
Plant response rating, Ryegrass, Italian (ryegrass, Italian; [10]): 40
Ryegrass, Italian plant response rating (ryegrass, Italian; [11]): 0
Ryegrass, Italian plant response rating (ryegrass, Italian; [12]): 0
Plant response rating, Ryegrass, Italian (ryegrass, Italian; [13]): 20
Plant response rating (scale of 0 to 100), Ryegrass, Italian (ryegrass, Italian; Preemergence, 250 g ai/ha): 40
Plant response rating, Wheat (wheat (winter wheat); [7]): 0
Plant response rating, Wheat (wheat (winter wheat); [8]): 0
Plant response rating, Wheat (wheat (winter wheat); [9]): 5
Plant response rating, Wheat (wheat (winter wheat); [10]): 5
Wheat plant response rating (wheat (winter wheat); [11]): 0
Wheat plant response rating (wheat (winter wheat); [12]): 0
Plant response rating, Wheat (wheat (winter wheat); [13]): 0
Plant response rating (scale of 0 to 100), Wheat (wheat (winter wheat); Preemergence, 250 g ai/ha): 5
Plant response rating, Galium (galium; [7]): 75
Plant response rating, Galium (galium; [8]): 80
Plant response rating, Galium (galium; [9]): 80
Plant response rating, Galium (galium; [10]): 80
Galium plant response rating (galium; [11]): 85
Galium plant response rating (galium; [12]): 85
Plant response rating, Galium (galium; [13]): 90
Plant response rating (scale of 0 to 100), Galium (galium; Preemergence, 250 g ai/ha): 90
Plant response rating, Corn (corn [2]; [7]): 0
Plant response rating, Corn (corn [2]; [8]): 0
Plant response rating, Corn (corn [2]; [9]): 0
Plant response rating, Corn (corn [2]; [10]): 0
Corn plant response rating (corn [2]; [11]): 0
Corn plant response rating (corn [2]; [12]): 35
Plant response rating, Corn (corn [2]; [13]): 70
Plant response rating (scale of 0 to 100), Corn (corn [2]; Preemergence, 250 g ai/ha): 75
Plant response rating, Crabgrass, Large (crabgrass, large; [7]): 25
Plant response rating, Crabgrass, Large (crabgrass, large; [8]): 35
Plant response rating, Crabgrass, Large (crabgrass, large; [9]): 60
Plant response rating, Crabgrass, Large (crabgrass, large; [10]): 75
Crabgrass, Large plant response rating (crabgrass, large; [11]): 85
Crabgrass, Large plant response rating (crabgrass, large; [12]): 90
Plant response rating, Crabgrass, Large (crabgrass, large; [13]): 90
Plant response rating (scale of 0 to 100), Crabgrass, Large (crabgrass, large; Preemergence, 250 g ai/ha): 90
Plant response rating, Foxtail, Giant (foxtail, giant; [7]): 0
Plant response rating, Foxtail, Giant (foxtail, giant; [8]): 5
Plant response rating, Foxtail, Giant (foxtail, giant; [9]): 15
Plant response rating, Foxtail, Giant (foxtail, giant; [10]): 70
Foxtail, Giant plant response rating (foxtail, giant; [11]): 85
Foxtail, Giant plant response rating (foxtail, giant; [12]): 90
Plant response rating, Foxtail, Giant (foxtail, giant; [13]): 90
Plant response rating (scale of 0 to 100), Foxtail, Giant (foxtail, giant; Preemergence, 250 g ai/ha): 95
Plant response rating, Johnsongrass (johnsongrass; [7]): 0
Plant response rating, Johnsongrass (johnsongrass; [8]): 20
Plant response rating, Johnsongrass (johnsongrass; [9]): 20
Plant response rating, Johnsongrass (johnsongrass; [10]): 25
Johnsongrass plant response rating (johnsongrass; [11]): 0
Johnsongrass plant response rating (johnsongrass; [12]): 20
Plant response rating, Johnsongrass (johnsongrass; [13]): 60
Plant response rating (scale of 0 to 100), Johnsongrass (johnsongrass; Preemergence, 250 g ai/ha): 70
Plant response rating, Morningglory (morningglory; [7]): 15
Plant response rating, Morningglory (morningglory; [8]): 0
Plant response rating, Morningglory (morningglory; [9]): 25
Plant response rating, Morningglory (morningglory; [10]): 60
Morningglory plant response rating (morningglory; [11]): 0
Morningglory plant response rating (morningglory; [12]): 15
Plant response rating, Morningglory (morningglory; [13]): 15
Plant response rating (scale of 0 to 100), Morningglory (morningglory; Preemergence, 250 g ai/ha): 20
Plant response rating, Soybean (soybean; [7]): 0
Plant response rating, Soybean (soybean; [8]): 10
Plant response rating, Soybean (soybean; [9]): 10
Plant response rating, Soybean (soybean; [10]): 20
Soybean plant response rating (soybean; [11]): 0
Soybean plant response rating (soybean; [12]): 0
Plant response rating, Soybean (soybean; [13]): 0
Plant response rating (scale of 0 to 100), Soybean (soybean; Preemergence, 250 g ai/ha): 5
